As usually defined, the inhibition is the relative decrease from the control value, in per cent. As a reminder, the Kd is the equilibrium constant for the complex coming apart.

Data set [1] addresses Vasoactive intestinal peptide receptor (Homo sapiens) (UniProt P41587+P32241+P41586). In words: Vasoactive intestinal peptide receptor CEREP ligand profiling. The format is protein assay. The conditions noted are these: Compound concentration 10.0 uM.
Data set [2] concerns the target Thromboxane A2 receptor (Homo sapiens) (UniProt P21731). The data set is described as follows: Thromboxane A2/ prostaglandin H2 receptors CEREP ligand profiling. The conditions noted are these: Compound concentration 10.0 uM.
Data set [3] concerns the target T1, Muscarinic acetylcholine receptor M2 (Homo sapiens) (UniProt P08172).
T1 sequence (whole entry): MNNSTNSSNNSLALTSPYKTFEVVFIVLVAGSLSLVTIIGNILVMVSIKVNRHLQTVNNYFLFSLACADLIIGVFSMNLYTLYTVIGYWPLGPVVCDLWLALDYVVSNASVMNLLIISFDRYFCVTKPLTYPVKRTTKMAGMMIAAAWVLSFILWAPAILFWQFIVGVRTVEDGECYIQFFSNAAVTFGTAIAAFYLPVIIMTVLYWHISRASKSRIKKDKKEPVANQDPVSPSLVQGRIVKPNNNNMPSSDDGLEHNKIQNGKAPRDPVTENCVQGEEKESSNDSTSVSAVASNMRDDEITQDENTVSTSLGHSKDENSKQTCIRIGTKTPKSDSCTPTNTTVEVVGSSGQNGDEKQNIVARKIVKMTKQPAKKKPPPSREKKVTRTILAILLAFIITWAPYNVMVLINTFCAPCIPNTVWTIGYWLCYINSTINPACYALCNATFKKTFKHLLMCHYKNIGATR
In words: Muscarinic M2 receptors (h) CEREP ligand profiling. The conditions noted are these: Compound concentration 10.0 uM.

Data set [4] deals with Histamine H2 receptor (Homo sapiens) (UniProt P25021). The data set is described as follows: Histamine H2 receptor CEREP ligand profiling. The conditions noted are these: Compound concentration 10.0 uM.
Sequence of Histamine H2 receptor (Homo sapiens) (P25021 whole entry): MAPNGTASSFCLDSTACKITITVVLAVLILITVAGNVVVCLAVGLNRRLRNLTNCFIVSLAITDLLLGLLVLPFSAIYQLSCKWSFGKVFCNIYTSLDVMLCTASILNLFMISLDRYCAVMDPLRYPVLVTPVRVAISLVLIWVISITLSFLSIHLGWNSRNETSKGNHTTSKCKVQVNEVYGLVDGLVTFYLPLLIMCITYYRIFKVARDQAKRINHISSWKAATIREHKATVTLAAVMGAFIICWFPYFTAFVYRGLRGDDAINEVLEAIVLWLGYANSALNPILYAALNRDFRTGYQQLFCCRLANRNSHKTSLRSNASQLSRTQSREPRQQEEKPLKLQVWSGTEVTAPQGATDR
For data set [5], the target named is Cholecystokinin receptor type A (Homo sapiens) (UniProt P32238). In words: CholecystokininA receptor (h) CEREP ligand profiling. The conditions noted are these: Compound concentration 10.0 uM.
Sequence of Cholecystokinin receptor type A (Homo sapiens) (P32238 whole entry): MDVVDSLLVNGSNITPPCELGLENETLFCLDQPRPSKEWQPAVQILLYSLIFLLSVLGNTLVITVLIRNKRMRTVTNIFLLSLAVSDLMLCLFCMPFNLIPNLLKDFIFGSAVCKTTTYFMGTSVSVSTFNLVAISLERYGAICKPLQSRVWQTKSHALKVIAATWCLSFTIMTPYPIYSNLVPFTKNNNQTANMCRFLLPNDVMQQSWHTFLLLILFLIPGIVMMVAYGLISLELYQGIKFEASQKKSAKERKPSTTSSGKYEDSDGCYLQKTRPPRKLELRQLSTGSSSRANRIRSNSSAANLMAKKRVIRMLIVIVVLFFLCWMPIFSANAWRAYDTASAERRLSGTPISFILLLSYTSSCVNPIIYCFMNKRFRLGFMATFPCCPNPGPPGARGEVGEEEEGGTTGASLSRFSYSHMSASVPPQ
The target in data set [6] is Substance-P receptor (Homo sapiens) (UniProt P25103). The data set is described as follows: Neurokinin-1 receptor (h) CEREP ligand profiling. The conditions noted are these: Compound concentration 10.0 uM.
Sequence of Substance-P receptor (Homo sapiens) (P25103 whole entry): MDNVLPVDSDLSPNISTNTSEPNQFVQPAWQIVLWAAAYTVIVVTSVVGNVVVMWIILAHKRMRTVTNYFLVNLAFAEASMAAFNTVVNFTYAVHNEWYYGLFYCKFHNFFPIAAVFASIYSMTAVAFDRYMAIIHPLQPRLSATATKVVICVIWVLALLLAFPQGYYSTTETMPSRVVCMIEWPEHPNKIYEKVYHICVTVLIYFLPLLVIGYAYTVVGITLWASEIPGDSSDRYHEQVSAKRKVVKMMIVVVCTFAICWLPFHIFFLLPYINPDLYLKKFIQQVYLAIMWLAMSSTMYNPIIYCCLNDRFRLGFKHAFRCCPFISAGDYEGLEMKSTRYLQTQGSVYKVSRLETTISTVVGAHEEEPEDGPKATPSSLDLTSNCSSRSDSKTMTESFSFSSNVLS
A further data set has as its target Sodium channel (site 2) (Homo sapiens, UniProt P35498+P35499+Q01118+Q14524+Q15858+Q99250+Q9NY46+Q9UI33+Q9UQD0+Q9Y5Y9). In words: Na+ channel (site 2) CEREP ligand profiling. The format is protein assay. The conditions noted are these: compound concentration 10 uM.
For data set [7], the target named is Calcium-activated potassium channel (Homo sapiens) (UniProt Q92952+Q9UGI6+Q12791+O15554+Q9H2S1+A8MYU2). The data set is described as follows: K+ channel (Ca2+-dependent) CEREP ligand profiling. It counts as protein assay. The conditions noted are these: Compound concentration 10.0 uM.
The target in data set [8] is Type-1 angiotensin II receptor (Homo sapiens) (UniProt P30556). In words: Angiotensin AT1 receptor (h) CEREP ligand profiling. The conditions noted are these: Compound concentration 10.0 uM.
Data set [9] deals with Death-associated protein kinase 3 (Homo sapiens, UniProt O43293). The data set is described as follows: Inhibition of DAPK3 at compound concentration of 10.0 uM using the ScanMax (DiscoverX).
Sequence of Death-associated protein kinase 3 (O43293 whole entry): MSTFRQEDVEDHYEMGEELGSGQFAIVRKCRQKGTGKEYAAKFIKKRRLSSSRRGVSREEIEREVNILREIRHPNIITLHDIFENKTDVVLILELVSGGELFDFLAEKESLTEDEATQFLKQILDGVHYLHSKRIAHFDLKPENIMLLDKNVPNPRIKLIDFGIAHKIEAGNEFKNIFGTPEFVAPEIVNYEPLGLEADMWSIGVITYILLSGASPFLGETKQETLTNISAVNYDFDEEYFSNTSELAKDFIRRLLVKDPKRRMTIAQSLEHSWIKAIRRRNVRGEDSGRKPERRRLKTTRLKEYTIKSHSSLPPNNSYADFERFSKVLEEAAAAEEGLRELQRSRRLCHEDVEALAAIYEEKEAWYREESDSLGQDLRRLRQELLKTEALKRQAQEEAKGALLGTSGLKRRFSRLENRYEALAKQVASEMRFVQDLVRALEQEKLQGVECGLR
Data set [10] deals with Alpha-2C adrenergic receptor (Homo sapiens, UniProt P18825). In words: GPCRScan assay: inhibition of Alpha2C. Further details: radioligand conc. used [nm] 0.5 – 1.0, parental cells stable MDCK.
The target of data set [11] is Beta-2 adrenergic receptor (Homo sapiens) (UniProt P07550). The conditions noted are these: Compound concentration 10.0 uM.
Sequence of Beta-2 adrenergic receptor (Homo sapiens) (P07550 whole entry, looked up): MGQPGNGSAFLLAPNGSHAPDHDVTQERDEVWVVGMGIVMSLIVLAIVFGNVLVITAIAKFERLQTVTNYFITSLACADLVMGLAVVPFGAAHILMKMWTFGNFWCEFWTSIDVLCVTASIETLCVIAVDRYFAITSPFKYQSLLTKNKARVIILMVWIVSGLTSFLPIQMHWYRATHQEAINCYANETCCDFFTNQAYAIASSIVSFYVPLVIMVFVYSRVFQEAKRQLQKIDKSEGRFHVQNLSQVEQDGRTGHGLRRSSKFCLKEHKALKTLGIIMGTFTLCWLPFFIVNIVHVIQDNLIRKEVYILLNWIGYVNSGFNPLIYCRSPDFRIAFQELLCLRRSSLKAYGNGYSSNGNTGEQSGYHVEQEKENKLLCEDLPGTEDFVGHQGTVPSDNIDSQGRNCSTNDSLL
Data set [12] has as its target 5-hydroxytryptamine receptor 2C (Homo sapiens) (UniProt P28335). The conditions noted are these: Compound concentration 10.0 uM.
Data set [13] has as its target 5-hydroxytryptamine receptor 2B (Homo sapiens, UniProt P41595). The data set is described as follows: GPCRScan assay: inhibition of 5-HT2B. Further details: radioligand conc. used [nm] 1.0 – 2.0, parental cells stable HEK.
The target of data set [14] is 5-hydroxytryptamine receptor 1D (Homo sapiens) (UniProt P28221). The conditions noted are these: Compound concentration 10.0 uM.
Sequence of 5-hydroxytryptamine receptor 1D (Homo sapiens) (P28221 whole entry): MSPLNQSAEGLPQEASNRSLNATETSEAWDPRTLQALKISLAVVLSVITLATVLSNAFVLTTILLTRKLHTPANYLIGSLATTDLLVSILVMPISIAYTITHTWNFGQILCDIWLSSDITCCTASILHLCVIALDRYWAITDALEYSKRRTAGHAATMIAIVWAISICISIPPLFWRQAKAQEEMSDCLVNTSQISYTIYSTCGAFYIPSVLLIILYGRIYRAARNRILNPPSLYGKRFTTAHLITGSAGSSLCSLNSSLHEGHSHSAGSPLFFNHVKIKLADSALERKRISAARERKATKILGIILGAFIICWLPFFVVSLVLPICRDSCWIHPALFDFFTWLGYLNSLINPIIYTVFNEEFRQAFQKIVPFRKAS

Molecules are shown by their SMILES.

Sequence of 5-hydroxytryptamine receptor 2B (P41595 whole entry): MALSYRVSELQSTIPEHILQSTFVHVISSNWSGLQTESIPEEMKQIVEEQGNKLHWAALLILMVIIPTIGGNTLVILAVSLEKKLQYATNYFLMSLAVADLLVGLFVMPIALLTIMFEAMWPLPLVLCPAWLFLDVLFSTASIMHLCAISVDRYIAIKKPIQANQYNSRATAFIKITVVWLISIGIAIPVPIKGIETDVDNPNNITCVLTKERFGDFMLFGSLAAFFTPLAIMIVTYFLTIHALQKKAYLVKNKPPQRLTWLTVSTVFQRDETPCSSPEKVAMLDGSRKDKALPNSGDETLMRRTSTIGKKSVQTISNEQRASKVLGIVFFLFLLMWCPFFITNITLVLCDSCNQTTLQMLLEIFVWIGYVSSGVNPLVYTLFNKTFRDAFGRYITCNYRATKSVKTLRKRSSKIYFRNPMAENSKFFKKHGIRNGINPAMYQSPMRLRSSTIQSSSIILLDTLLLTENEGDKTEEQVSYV
Sequence of Vasoactive intestinal peptide receptor (Homo sapiens) (P32241 whole entry, looked up): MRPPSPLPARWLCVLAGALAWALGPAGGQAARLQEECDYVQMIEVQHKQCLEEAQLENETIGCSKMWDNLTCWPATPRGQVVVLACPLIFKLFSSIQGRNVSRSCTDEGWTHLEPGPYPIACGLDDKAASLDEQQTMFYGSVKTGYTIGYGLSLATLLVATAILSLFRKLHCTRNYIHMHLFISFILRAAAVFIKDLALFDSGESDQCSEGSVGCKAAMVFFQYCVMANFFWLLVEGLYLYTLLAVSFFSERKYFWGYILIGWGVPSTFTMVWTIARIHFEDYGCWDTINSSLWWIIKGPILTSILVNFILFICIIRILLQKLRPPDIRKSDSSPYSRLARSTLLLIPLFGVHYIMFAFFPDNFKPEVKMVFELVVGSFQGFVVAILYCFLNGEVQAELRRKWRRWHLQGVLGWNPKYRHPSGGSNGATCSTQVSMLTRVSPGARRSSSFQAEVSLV
Sequence of Vasoactive intestinal peptide receptor (Homo sapiens) (P41586 whole entry, looked up): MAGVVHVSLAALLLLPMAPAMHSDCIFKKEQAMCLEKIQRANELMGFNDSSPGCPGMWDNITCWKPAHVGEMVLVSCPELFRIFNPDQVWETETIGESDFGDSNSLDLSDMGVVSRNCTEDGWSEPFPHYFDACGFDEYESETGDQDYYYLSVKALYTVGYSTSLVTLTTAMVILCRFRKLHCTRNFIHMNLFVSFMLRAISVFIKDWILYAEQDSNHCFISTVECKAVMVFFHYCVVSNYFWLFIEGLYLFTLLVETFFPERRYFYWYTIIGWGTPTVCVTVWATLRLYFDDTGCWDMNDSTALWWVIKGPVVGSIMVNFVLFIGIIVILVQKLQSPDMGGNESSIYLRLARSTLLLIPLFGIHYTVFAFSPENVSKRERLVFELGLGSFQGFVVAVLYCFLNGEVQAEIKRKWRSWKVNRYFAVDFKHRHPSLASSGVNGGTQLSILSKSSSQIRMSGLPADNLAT
Sequence of Vasoactive intestinal peptide receptor (Homo sapiens) (P41587 whole entry, looked up): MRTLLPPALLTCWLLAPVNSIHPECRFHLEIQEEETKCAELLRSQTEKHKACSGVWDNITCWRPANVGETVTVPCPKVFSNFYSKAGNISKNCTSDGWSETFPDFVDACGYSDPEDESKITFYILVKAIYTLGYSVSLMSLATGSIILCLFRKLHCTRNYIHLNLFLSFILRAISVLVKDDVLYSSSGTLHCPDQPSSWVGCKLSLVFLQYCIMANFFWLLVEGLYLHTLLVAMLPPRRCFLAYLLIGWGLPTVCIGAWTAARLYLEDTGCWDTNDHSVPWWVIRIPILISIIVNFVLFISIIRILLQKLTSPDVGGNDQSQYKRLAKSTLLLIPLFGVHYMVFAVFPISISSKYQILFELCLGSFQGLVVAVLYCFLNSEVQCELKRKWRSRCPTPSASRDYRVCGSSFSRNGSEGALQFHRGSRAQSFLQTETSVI
Sequence of 5-hydroxytryptamine receptor 2C (Homo sapiens) (P28335 whole entry): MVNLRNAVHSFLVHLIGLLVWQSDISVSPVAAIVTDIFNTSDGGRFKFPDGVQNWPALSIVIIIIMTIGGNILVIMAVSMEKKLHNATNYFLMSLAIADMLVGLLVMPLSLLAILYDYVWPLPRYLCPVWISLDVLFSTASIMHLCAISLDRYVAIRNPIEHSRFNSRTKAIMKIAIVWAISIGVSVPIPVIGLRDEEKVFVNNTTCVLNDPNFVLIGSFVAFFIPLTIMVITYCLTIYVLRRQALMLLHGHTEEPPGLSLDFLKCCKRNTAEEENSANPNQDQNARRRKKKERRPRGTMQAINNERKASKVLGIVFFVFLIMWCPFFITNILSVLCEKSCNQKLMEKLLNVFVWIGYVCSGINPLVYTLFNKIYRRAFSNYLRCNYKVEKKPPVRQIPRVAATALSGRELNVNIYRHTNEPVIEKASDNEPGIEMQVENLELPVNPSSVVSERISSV

Turning to `CCCCN(CCCC)C(=O)CN1C[C@H](c2cc(OC)c3c(c2)OCO3)[C@@H](C(=O)O)[C@@H]1CC(C)(C)CCC` [ABT-546], the inhibition in data set [1] was under 10%; in [2], 16%; in data set [3], under 10%; in data set [4] it was under 10%; in data set [5], under 10%; in data set [6], under 10%. Besides, the inhibition in [7] and in [8] was under 10% throughout. Moreover, the inhibition at 10 µM at Sodium channel (site 2) was < 10% (not active). In data set [9], the Kd is on record as > 10 µM (not active).
`CCCCN(CCCC)C(=O)CN1C[C@@H](c2cc(OC)c3c(c2)OCO3)[C@H](C(=O)O)[C@H]1CC(C)(C)CCC` [A-545]: the Ki in data set [10] was 5.77 µM; in [13] (read-out: Ki), 6.52 µM; in data set [13] (read-out: pKi (converted)), 5.82 µM. In addition, the inhibition in data set [11] was -6.31%; in data set [12], 15.7%; in data set [14], -3.72%.

For the origin of these results see ChEMBL document CHEMBL4507258 (2021).
